Legend:
[1] = system: uninfected CEM-T4 cells; experiment: Toxicity to uninfected CEM-T4 cells (MTT assay); format: cell-based; conditions: day 8, MTT
Method: The assays desirably measure the concentration of the multi-quinone that allows for 50% survival of CEM-T4 cells infected with HIV-1 and the concentration of multi-quinone that kills 50% of uninfected CEM-T4 cells. One skilled in the art will appreciate that other known assays or tests for determining antiviral activity may be used.
The chlorohydroxybiquinone was tested for anti-HIV activity by the CEM-T4 cytoprotection assay which measures the inhibition of viral cytopathogenic effects. CEM-T4 cells used for the assay were maintained in RPMI-1640 culture medium containing 2 millimoles L-glutamine and 25 millimoles HEPES, and supplemented with 10% fetal bovine serum, 50 units/milliliter of penicillin G, and 50 microgram/milliliter streptomycin sulfate. The antiviral assays were performed in 96-well tissue culture plates. Cells were treated with polybrene at a concentration of 2 microgram/milliliter, and 1×10^4 cells were dispensed into each well. Appropriate concentrations of the biquinone were prepared in sterile DMSO and diluted with culture medium to the desired concentrations. Each dilution of test compound was added to multiple wells of cells, and the cells were incubated at 37° C. for one hour. Cells were then infected at a multiplicity of infection of 0.025 TCID50/cell by the addition of a diluted stock of the HTLV-IIIB strain of HIV-1. […]
Assay plates were incubated at 37° C. in a humidified 5% carbon dioxide (CO2) atmosphere and examined microscopically for toxicity and/or cytopathogenic effect. Once the viral cytopathogenic effect was maximal (the eighth day post-infection), the surviving cells in each test well were quantified using the MTT assay known in the art and described in Pauwels et al., “Rapid and Automated Tetrazolium-based Colorimetric Assay for the Detection of Anti-HIV Compounds,” J. Virol. […] When a dose-dependent effect for either anti-HIV activity or cytotoxicity was observed, values for the 50% effective dose were calculated using the dose-effect analysis software of Chou and Chou, available from Elsevier-Biosoft.

[2] = system: retroviruses such as an HIV; conditions: as disclosed in the Boyd et al. Patents; cited from earlier work

| Structure (SMILES) | TD50 (concentration to cause reduction of cell growth by 50% of uninfected controls) [1] [µM] | antiviral activity (growth and replication of viruses) [2] |
| --- | --- | --- |
| CC(C)=CCC[C@]1(C)C=Cc2c(ccc3c2C(=O)C(O)=C(C2=C(Cl)C(=O)c4ccccc4C2=O)C3=O)O1 [chlorohydroxybiquinone, 8-(3-Chloro-1,4-dioxo-1,4-dihydronapthalen-2-yl)-9-hydroxy-3-methyl-3-(4-methyl-pent-3-enyl)-3H-benzo[f]chromene-7,10-dione] | 2.7 |  |
| COC1=C(C2=C(Cl)C(=O)c3ccccc3C2=O)C(=O)c2ccc3c(c2C1=O)C=C[C@@](C)(CCC=C(C)C)O3 [chloromethoxybiquinone, 8-(3-Chloro-1,4-dioxo-1,4-dihydro-napthalen-2-yl)-9-methoxy-3-methyl-3-(4-methyl-pent-3-enyl)-3H-benzo[f]chromene-7,10-dione] | 5.4 |  |
| CC(C)=CCC[C@]1(C)C=Cc2c(ccc3c2C(=O)C(O)=C(C2=C(C4=C(O)C(=O)c5c(ccc6c5C=C[C@@](C)(CCC=C(C)C)O6)C4=O)C(=O)c4c(ccc5c4C=C[C@@](C)(CCC=C(C)C)O5)C2=O)C3=O)O1 [conocurvone] |  | inhibit the growth and replication of viruses |
| COC1=C(C2=C(C3=C(O)C(=O)c4ccccc4C3=O)C(=O)c3ccccc3C2=O)C(=O)c2ccc3c(c2C1=O)C=CC(C)(C)O3 [trimeric quinone, 3-Hydroxy-3′-(9-methoxy-3,3-dimethyl-7,10-dioxo-7,10-dihydro-3H-benzo[f]chromen-8-yl)-2,2′-binaphthalenyl-1,4,1′,4′-tetraone] | 17 |  |
